Test results taken from patent US20260158008A1, “POLYMORPHS OF THE MESYLATE SALT OF LINAPRAZAN GLURATE” (Cinclus Pharma Holding AB (Publ), priority 2021, published 2026).
Where two headings read alike, the source gives them in different places.

Columns and labels:
[1] = cited from earlier work
[2] = up to 24 hours
Description: The solubility of Form A in Fed State Simulated Gastric Fluid (FEDGAS) mid stage, second version of Fasted State Simulated Intestinal Fluid (FaSSIF-V2) and second version of Fed State Simulated Intestinal Fluid (FeSSIF-V2) was studied.
To 90 mL of Milli Q water were added 139 mg of NaOH, 222 mg of maleic acid and 401 mg of NaCl and the resulting mixture was stirred until fully dissolved. The pH was adjusted to 6.5 with 1 M HCl and 1 M NaOH, and made up to 100 mL with Milli Q water. 179 mg of FaSSIF-V2 (Biorelevant, batch V2FAS-1020-A) was mixed with the prepared 100 ml of buffer, stirred until fully dissolved and equilibrated at RT for 1 hour before use.
To 90 ml of Milli Q water were added 327 mg of NaOH, 639 mg of maleic acid and 733 mg of NaCl and the resulting mixture was stirred until fully dissolved. The pH was adjusted to 5.8 with 1 M HCl and 1 M NaOH, and made up to 100 mL with Milli Q water. 976 mg of FeSSIF-V2 (Biorelevant, batch V2FES-1020-A) was mixed with the prepared 100 ml of buffer, stirred until fully dissolved and equilibrated at RT for 1 hour before use. […]
Saturated solutions were prepared in 4 ml vials by adding fixed weights (excess amounts) of Form A to 2 mL of each of the different buffer solutions. […] Concentrations were calculated from a calibration curve based on 7 calibration standards (stock solutions of 100 and 250 μg/mL, and serial dilutions thereof).

[3] = Dynamic vapour sorption (DVS) analysis, hygroscopicity / water content; format: physicochemical
Description: Analyses were performed on an SMS DVS-1 instrument.
(§1) Method 1: A few mg of the substance was added into an Al pan and exposed to stepwise RH changes during two identical consecutive cycles according to 0-10-20-30-40-50-60-70-80-90-80-70-60-50-40-30-20-10-0% RH using open loop mode. The experiments were performed using a gas flow rate of 200 ml/min and at 25° C. The dm/dt criteria applied were 0.001 weight-%/min during a 5-minutes window, with a maximum allowed time of 360 minutes and a minimum allowed time of 10 minutes for all steps, except for the first stage which was set to a 12-hours fix time.
as §1, with “2:” for “1:”, “steps.” for “steps, except for the first stage which was set to a 12-hours fix time.”
as §1, with “3:” for “1:”, “6-hours” for “12-hours”
The hygroscopicity of sample 1 of Form A (obtained from a slurry in 2-propanol) was investigated using method 1. […]
For sample 2 of Form A (obtained from a slurry in acetone), a TGA-dried sample was investigated using method 2. […] In the second cycle, “pure” water absorption and desorption is recorded. […]

[4] = XRPD check of solid form after TGA or DVS; format: physicochemical
Description: Analyses were performed on a PanAlytical X'Pert Pro diffractometer equipped with a Cu-anode (45 kV, 40 mA), a Kα-1 Johansson monochromator (1.540598 Å) and a Pixcel detector. The 2-theta range was 2-35°, using a step size of 0.013° and a scan speed of 0.10°/s (“6 minutes scan”) or 0.03°/s (“20 minutes scan”). Slow spinning sample holders were used. The samples were smeared out on zero background wafers of Si, producing a flat powdered surface. The measurements were performed using a programmable incident divergency slit.
Method 1: A few mg of sample was gently charged into open Pt-pans and analysed by weight in a flow of dry nitrogen gas (20 mL/min), to ensure an inert atmosphere, from 25 to 140° C. using a continuous scan speed of 10° C./min, followed by an isothermal step at 140° C. for 60 minutes (ended manually if the drying process was completed before 60 minutes).
as §1, with “2:” for “1:”, “steps.” for “steps, except for the first stage which was set to a 12-hours fix time.”

[5] = test system: gastric acid production; settings: cited from earlier work
[6] = Plasma concentration after oral administration of linaprazan glurate; format: in vivo, human
[7] = test system: gastric acid production; settings: cited from earlier work; remark: listed apart in the source

Compound: Cc1cccc(C)c1CNc1cc(C(=O)NCCOC(=O)CCCC(=O)O)cn2c(C)c(C)nc12 [Form A (free base)]
- solubility in water ([1]; pH 1): only slightly soluble
- solubility in water ([1]; pH 6.8): practically insoluble

Compound: CS(=O)(=O)O.Cc1cccc(C)c1CNc1cc(C(=O)NCCOC(=O)CCCC(=O)O)cn2c(C)c(C)nc12 [Form A]
- solubility in FEDGAS relative to FaSSIF-V2 ([2]; FEDGAS mid stage pH 4.5 vs FaSSIF-V2 pH 6.5, 37° C.): about 20 times higher
- solubility in FEDGAS relative to FeSSIF-V2 ([2]; FEDGAS mid stage pH 4.5 vs FeSSIF-V2 pH 5.8, 37° C.): about 7 times higher
- water uptake with relative humidity ([3]; 0 to 90% RH, 25° C.): increases almost linearly with increasing relative humidity
- stability at relative humidity ([3]; relative humidity up to 90%, 25° C.): stable
- solid form after the TGA experiment (XRPD) ([4]; after heating 25 to 140° C., TGA method 1): this form remained
- solid form after the DVS-analysis (XRPD) ([4]; after two cycles 0-90% RH, 25° C.): this form remained

Compound: CS(=O)(=O)O.Cc1cccc(C)c1CNc1cc(C(=O)NCCOC(=O)CCCC(=O)O)cn2c(C)c(C)nc12 [Form B]
- water content ([3]; at 80% RH): about 3.4%

Compound: Cc1cccc(C)c1CNc1cc(C(=O)NCCOC(=O)CCCC(=O)O)cn2c(C)c(C)nc12 [linaprazan glurate, 5-{2-[({8-[(2,6-dimethylbenzyl)amino]-2,3-dimethylimidazo[1,2-a]pyridine-6-yl}carbonyl)-amino]ethoxy}-5-oxopentanoic acid]
- control of gastric acid production compared to linaprazan ([5]; human, in vivo): total control of the gastric acid production for a longer time
- half-life in the body compared to linaprazan ([5]; human, in vivo): longer half-life in the body
- time for which intragastric acidity is maintained above pH 4 ([5]; single dose, clinical Phase I study): 24 hours
- metabolism following absorption into the blood stream ([6]; in vivo): quickly metabolized into linaprazan
- plasma concentration ([6]; in vivo): only very low and difficult to determine

Compound: Cc1cccc(C)c1CNc1cc(C(=O)NCCO)cn2c(C)c(C)nc12 [linaprazan]
- onset of action ([7]; Phase I and II studies): fast onset of action and full effect at first dose
- tolerability ([7]; Phase I and II studies): well tolerated
- duration of acid inhibition ([7]; in vivo): too short duration of acid inhibition
- elimination ([7]; in vivo): quickly eliminated from the body
- concentration at 22 h ([6]; human, plasma, oral, after 22 hours, estimated from Phase I studies of linaprazan glurate, read-out: minimal plasma concentration (Cmin) of linaprazan required to maintain intra-gastric pH above 4 for 24 hours): ≥ 240 nM
